# Results reported in patent US20210300940A1 (Merck Patent GmbH, priority 2018, published 2021).
# Counter-ions that a name gives are not always drawn.
# Columns and labels:
# TLR7 = target: T1, TLR7 (Homo sapiens, UniProt Q9NYK1); assay: HEK/293 TLR7 Cell Assay; type: cell-based; conditions: TLR7/NFKb HEK cells, R848 agonist 10 uM final concentration, Steady-Glo readout; read-out: TLR7 potency
# T1 construct: expressed in transfected cells; host or cells: HEK/293 cells carrying TLR7 and an NF-kB luciferase reporter
# T1 sequence (Q9NYK1 27-1049): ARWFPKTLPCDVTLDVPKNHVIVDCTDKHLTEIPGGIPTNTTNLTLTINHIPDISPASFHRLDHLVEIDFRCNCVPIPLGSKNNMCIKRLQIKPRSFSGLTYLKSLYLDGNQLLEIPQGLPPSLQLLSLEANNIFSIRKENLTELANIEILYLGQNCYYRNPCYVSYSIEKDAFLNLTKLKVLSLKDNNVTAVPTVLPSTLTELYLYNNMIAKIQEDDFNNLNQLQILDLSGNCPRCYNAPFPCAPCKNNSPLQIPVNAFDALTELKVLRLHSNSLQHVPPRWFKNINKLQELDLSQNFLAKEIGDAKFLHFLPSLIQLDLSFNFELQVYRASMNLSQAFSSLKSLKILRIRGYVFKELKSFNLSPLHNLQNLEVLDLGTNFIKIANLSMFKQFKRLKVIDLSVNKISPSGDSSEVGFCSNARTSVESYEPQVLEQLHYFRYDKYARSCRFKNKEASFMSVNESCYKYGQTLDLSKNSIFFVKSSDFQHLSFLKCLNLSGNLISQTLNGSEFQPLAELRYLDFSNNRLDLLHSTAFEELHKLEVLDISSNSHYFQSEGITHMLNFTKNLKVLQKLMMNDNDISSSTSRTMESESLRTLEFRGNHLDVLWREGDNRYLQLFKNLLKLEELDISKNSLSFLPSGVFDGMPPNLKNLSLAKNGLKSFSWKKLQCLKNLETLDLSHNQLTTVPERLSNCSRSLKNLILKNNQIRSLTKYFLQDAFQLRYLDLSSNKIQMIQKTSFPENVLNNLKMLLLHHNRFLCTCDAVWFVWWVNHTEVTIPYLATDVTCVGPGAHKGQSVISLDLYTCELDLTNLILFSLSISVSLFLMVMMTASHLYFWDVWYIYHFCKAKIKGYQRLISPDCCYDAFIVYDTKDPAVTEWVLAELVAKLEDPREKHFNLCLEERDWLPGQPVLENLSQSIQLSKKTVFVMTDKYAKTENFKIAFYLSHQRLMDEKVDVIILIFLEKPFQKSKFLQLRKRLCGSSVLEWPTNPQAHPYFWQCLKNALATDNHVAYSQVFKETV
# In short: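 Compounds added to HEK cells expressing TLR7 with an NFκB reporter 30 min ahead of 10 uM R848 challenge; luciferase signal (Steady-Glo) measured after 5 h, cells having been seeded 24 h earlier at 5000 per well.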
# TLR8 = target: T2, TLR8 (Homo sapiens, UniProt Q9NR97); assay: HEK/293 TLR8 Cell Assay; type: cell-based; conditions: HEK cells, R848 agonist 30 uM final concentration, Steady-Glo readout; read-out: TLR8 potency
# T2 construct: expressed in transfected cells; host or cells: HEK/293 reporter cells (NF-kB luciferase)
# T2 sequence (Q9NR97 27-1041): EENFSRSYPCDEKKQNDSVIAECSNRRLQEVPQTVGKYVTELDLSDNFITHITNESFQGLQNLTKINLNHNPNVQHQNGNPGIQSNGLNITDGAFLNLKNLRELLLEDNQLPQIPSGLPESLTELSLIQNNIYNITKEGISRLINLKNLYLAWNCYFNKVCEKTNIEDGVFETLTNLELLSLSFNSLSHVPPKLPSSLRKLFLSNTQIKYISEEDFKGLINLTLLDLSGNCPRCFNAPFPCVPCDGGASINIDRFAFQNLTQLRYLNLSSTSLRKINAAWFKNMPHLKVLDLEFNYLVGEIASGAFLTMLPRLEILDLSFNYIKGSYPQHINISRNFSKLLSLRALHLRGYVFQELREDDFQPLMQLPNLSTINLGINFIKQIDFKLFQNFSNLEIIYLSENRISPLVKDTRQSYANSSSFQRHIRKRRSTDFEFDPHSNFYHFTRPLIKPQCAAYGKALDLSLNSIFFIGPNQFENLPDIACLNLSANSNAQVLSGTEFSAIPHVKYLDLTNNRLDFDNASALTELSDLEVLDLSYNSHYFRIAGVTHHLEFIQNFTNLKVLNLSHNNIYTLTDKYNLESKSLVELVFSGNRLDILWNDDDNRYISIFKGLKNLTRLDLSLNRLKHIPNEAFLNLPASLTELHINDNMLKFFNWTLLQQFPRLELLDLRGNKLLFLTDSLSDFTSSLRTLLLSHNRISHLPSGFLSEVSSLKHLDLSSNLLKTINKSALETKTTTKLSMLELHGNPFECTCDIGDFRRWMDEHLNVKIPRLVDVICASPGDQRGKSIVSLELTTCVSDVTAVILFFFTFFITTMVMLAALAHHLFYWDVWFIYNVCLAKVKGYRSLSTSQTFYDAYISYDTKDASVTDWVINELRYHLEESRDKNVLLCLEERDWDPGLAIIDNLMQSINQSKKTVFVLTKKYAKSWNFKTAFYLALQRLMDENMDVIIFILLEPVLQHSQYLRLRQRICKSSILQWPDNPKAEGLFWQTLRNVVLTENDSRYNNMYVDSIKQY
SMILES,IC50 (TLR7),IC50 (TLR8)
"N#Cc1ccc(N2C[C@@H](C(=O)NC[C@@]3(F)CCNC3)O[C@@H](C(F)(F)F)C2)c2nccnc12 (single isomer, unassigned) [Example 308]",< 0.075 µM,< 0.075 µM
"C[C@@H]1CN(c2cnc(C#N)c3ncccc23)C[C@H](CNC(=O)[C@]2(F)CCNC2)O1 (single isomer, unassigned) [Example 337]",< 0.075 µM,< 0.075 µM
"C[C@@H]1CN(c2ccc(C#N)c3nccnc23)C[C@H](C(=O)NC[C@@H]2CN(C)CCO2)O1 (single isomer, unassigned) [Example 325]",< 0.075 µM,< 0.075 µM
"CC(=O)N1CCC(NC(=O)[C@H]2CN(c3ccc(C#N)c4nccnc34)C[C@@H](C)O2)CC1 [Example 242, (2R,6R)-4-(8-Cyano-quinoxalin-5-yl)-6-methyl-morpholine-2-carboxylic acid (1-acetyl-piperidin-4-yl)-amide]",< 0.075 µM,< 0.075 µM
"CN1CCC(F)(CNC(=O)[C@H]2CN(c3ccc(C#N)c4ncccc34)C[C@@H](C(F)(F)F)O2)CC1 (single isomer, unassigned) [Example 353]",< 0.075 µM,< 0.075 µM
"C[C@H]1C[C@@H](NC(=O)[C@@H]2CCCN2)CN(c2ccc(C#N)c3nccnc23)C1 [Example 175, (S)-Pyrrolidine-2-carboxylic acid [(3R,5S)-1-(8-cyano-quinoxalin-5-yl)-5-methyl-piperidin-3-yl]-amide]",0.075 to 0.15 µM,< 0.075 µM
"C[C@H]1C[C@@H](NCCN2CCNC2=O)CN(c2ccc(C(F)(F)F)c3ncccc23)C1 [Example 27, 1-{2-[(3R,5S)-5-Methyl-1-(8-trifluoromethyl-quinolin-5-yl)-piperidin-3-ylamino]-ethyl}-imidazolidin-2-one]",< 0.075 µM,< 0.075 µM
"Cc1ncc(N2C[C@H](NC(=O)CC3CCNCC3F)C[C@H](C(F)(F)F)C2)c2cccnc12 (stereo partly drawn) [Example 136, 2-(3-Fluoro-piperidin-4-yl)-N-[(3R,5S)-1-(8-methyl-[1,7]naphthyridin-5-yl)-5-trifluoromethyl-piperidin-3-yl]-acetamide]",0.075 to 0.15 µM,< 0.075 µM
"C[C@H]1C[C@@H](N)CN(c2cnc(C(F)(F)F)c3ncccc23)C1 [Example 7, (3R,5S)-5-Methyl-1-(8-trifluoromethyl-[1,7]naphthyridin-5-yl)-piperidin-3-ylamine hydrochloride]",< 0.075 µM,< 0.075 µM
"CCN1CCN(C[C@H]2CN(c3cnc(C#N)c4ncccc34)C[C@@H](C)O2)CC1 [Example 371, 5-[(2S,6R)-2-(4-Ethyl-piperazin-1-ylmethyl)-6-methyl-morpholin-4-yl]-naphthyridine-8-carbonitrile]",> 0.15 µM,< 0.075 µM
C[C@H]1C[C@@H](NC(=O)CCN(C)C)CN(c2ccc(C(F)(F)F)c3nccnc23)C1 [Example 78],< 0.075 µM,< 0.075 µM
"CONC(=O)CCCN[C@@H]1C[C@H](C)CN(c2ccc(C(F)(F)F)c3nccnc23)C1 [Example 52, N-Methoxy-4-[(3R,5S)-5-methyl-1-(8-trifluoromethyl-quinoxalin-5-yl)-piperidin-3-ylamino]-butyramide]",< 0.075 µM,< 0.075 µM
"C[C@H]1C[C@@H](NCCNS(C)(=O)=O)CN(c2ccc(C#N)c3nccnc23)C1 [Example 41, N-{2-[(3R,5S)-1-(8-Cyano-quinoxalin-5-yl)-5-methyl-piperidin-3-ylamino]-ethyl}-methanesulfonamide]",< 0.075 µM,< 0.075 µM
"Cc1c(F)cc(N2C[C@H](CN3CCC(N4CCCC4)CC3)O[C@H](C)C2)c2cccnc12 [Example 223, 7-Fluoro-8-methyl-5-[(2R,6S)-2-methyl-6-(4-pyrrolidin-1-yl-piperidin-1-ylmethyl)-morpholin-4-yl]-quinoline]",< 0.075 µM,< 0.075 µM
"C[C@@H]1CN(c2ccc(C#N)c3nccnc23)C[C@H](C(=O)NCCN2CCOCC2)O1 [Example 265, (2R,6R)-4-(8-cyanoquinoxalin-5-yl)-6-methyl-N-[2-(morpholin-4-yl)ethyl]morpholine-2-carboxamide]",< 0.075 µM,< 0.075 µM
"C[C@H]1C[C@@H](NC(=O)[C@H](C)N2CCN(C)CC2)CN(c2ccc(C(F)(F)F)c3ncccc23)C1 (single isomer, unassigned) [Example 93]",< 0.075 µM,< 0.075 µM
C[C@H]1C[C@@H](NC(=O)CCN(C)C)CN(c2ccc(C#N)c3nccnc23)C1 [Example 79],< 0.075 µM,< 0.075 µM
"C[C@H]1C[C@@H](NC(=O)C2(F)CCNC2)CN(c2ccc(C(F)(F)F)c3ncccc23)C1 (stereo partly drawn) [Example 205, 3-fluoro-N-[(3R,5S)-5-methyl-1-[8-(trifluoromethyl)quinolin-5-yl]piperidin-3-yl]pyrrolidine-3-carboxamide]",< 0.075 µM,< 0.075 µM
"CN1CCC(O)(CC(=O)N[C@@H]2C[C@H](C(F)(F)F)CN(c3ccc(C#N)c4nccnc34)C2)CC1 [Example 76, N-[(3R,5S)-1-(8-cyanoquinoxalin-5-yl)-5-(trifluoromethyl)piperidin-3-yl]-2-(4-hydroxy-1-methylpiperidin-4-yl)acetamide]",0.075 to 0.15 µM,< 0.075 µM
C[C@H]1C[C@@H](NCCNS(N)(=O)=O)CN(c2ccc(C(F)(F)F)c3ncccc23)C1 [Example 19],0.075 to 0.15 µM,< 0.075 µM
"C[C@@H]1C[C@H](NC(=O)C[C@@H]2[C@@H]3C[C@H]2CN(C)C3)CN(c2ccc(C(F)(F)F)c3ncccc23)C1 [Example 107, N-((3S,5R)-5-methyl-1-(8-(trifluoromethyl)quinolin-5-yl)piperidin-3-yl)-2-((1R,5S,6r)-3-methyl-3-azabicyclo[3.1.1]heptan-6-yl)acetamide]",< 0.075 µM,< 0.075 µM
"C[C@@H]1CN(c2cnc(C#N)c3ncccc23)C[C@H](C(=O)NCC2(F)CCN(C)CC2)O1 [Example 348, (2R,6R)-4-(8-Cyano-[1,7]naphthyridin-5-yl)-6-methyl-morpholine-2-carboxylic acid (4-fluoro-1-methyl-piperidin-4-ylmethyl)-amide]",< 0.075 µM,> 0.15 µM
"CNC(=O)CCN[C@@H]1C[C@H](C)CN(c2ccc(C(F)(F)F)c3ncccc23)C1 [Example 56, N-Methyl-3-[(3R,5S)-5-methyl-1-(8-trifluoromethyl-quinolin-5-yl)-piperidin-3-ylamino]-propionamide]",0.075 to 0.15 µM,< 0.075 µM
"N#Cc1ccc(N2C[C@@H](C(=O)NC[C@]3(F)CCNC3)O[C@@H](C(F)(F)F)C2)c2nccnc12 (single isomer, unassigned) [Example 310]",< 0.075 µM,< 0.075 µM
